The values below come from patent US20250084056A1, “SUBSTITUTED OXOISOINDOLINYL PIPERIDINE-2,6-DIONE COMPOUNDS” (BRISTOL-MYERS SQUIBB COMPANY, priority 2023, published 2025).

In one assay the test system is Phospho-Rb (Ser807/811). The assay is described as follows: Phospho-Retinoblastoma (pRB) Cellular Assay. The assay is classed as cell-based. The settings on record: Homo sapiens, OVCAR-3, NIH OVCAR3 cells, 24 hours. In a few lines: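 Phospho-Rb (Ser807/811) kit read-out on EnVision after lysis (≥4 h, room temperature, dark) of OVCAR3 cells exposed to compound dilutions for 24 h. IC50 and maximum response Ymax are relative to a 10 μM reference compound defining 100%.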

A further assay deals with Cyclin E1 (Homo sapiens, UniProt P24864+Q96SW2). Briefly: Cyclin E1 Cellular Degradation Assay (MSD). The assay is classed as cell-based. Set-up: endogenous in cells; host or cells: OVCAR3. In a few lines:
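Cyclin E1 remaining after 24 h compound exposure of OVCAR3 cells was quantified in lysates by electrochemiluminescent MSD sandwich assay. DC50 (50% response concentration) and Dmax (maximum response) were calculated, with 110% response set by a reference compound at […].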

Chain of Cyclin E1 (P24864 whole entry): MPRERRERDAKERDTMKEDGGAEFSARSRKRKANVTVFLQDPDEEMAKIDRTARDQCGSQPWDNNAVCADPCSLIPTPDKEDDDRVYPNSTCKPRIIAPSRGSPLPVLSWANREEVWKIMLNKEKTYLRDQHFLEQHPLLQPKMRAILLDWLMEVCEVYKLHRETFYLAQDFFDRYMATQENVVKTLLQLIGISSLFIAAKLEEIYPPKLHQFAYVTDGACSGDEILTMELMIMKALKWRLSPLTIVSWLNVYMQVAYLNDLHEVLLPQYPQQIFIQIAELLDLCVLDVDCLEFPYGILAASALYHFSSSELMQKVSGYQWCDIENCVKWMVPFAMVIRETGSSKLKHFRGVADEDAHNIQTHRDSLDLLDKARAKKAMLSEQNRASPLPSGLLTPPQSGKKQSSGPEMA
Chain of Cyclin E1 (Q96SW2 whole entry): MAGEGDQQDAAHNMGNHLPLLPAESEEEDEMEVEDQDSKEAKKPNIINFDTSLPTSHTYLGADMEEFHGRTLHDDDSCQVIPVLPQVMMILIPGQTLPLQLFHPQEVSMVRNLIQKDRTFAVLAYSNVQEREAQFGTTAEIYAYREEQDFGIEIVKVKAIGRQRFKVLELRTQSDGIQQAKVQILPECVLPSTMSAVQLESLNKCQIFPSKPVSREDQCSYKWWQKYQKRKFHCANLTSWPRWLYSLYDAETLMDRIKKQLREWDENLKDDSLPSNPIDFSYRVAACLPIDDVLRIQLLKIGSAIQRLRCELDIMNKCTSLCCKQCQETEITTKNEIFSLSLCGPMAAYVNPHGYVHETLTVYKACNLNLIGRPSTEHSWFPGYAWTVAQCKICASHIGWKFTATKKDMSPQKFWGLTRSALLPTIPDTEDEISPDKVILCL
Chain of Cyclin E1 (Q16531 whole entry partner): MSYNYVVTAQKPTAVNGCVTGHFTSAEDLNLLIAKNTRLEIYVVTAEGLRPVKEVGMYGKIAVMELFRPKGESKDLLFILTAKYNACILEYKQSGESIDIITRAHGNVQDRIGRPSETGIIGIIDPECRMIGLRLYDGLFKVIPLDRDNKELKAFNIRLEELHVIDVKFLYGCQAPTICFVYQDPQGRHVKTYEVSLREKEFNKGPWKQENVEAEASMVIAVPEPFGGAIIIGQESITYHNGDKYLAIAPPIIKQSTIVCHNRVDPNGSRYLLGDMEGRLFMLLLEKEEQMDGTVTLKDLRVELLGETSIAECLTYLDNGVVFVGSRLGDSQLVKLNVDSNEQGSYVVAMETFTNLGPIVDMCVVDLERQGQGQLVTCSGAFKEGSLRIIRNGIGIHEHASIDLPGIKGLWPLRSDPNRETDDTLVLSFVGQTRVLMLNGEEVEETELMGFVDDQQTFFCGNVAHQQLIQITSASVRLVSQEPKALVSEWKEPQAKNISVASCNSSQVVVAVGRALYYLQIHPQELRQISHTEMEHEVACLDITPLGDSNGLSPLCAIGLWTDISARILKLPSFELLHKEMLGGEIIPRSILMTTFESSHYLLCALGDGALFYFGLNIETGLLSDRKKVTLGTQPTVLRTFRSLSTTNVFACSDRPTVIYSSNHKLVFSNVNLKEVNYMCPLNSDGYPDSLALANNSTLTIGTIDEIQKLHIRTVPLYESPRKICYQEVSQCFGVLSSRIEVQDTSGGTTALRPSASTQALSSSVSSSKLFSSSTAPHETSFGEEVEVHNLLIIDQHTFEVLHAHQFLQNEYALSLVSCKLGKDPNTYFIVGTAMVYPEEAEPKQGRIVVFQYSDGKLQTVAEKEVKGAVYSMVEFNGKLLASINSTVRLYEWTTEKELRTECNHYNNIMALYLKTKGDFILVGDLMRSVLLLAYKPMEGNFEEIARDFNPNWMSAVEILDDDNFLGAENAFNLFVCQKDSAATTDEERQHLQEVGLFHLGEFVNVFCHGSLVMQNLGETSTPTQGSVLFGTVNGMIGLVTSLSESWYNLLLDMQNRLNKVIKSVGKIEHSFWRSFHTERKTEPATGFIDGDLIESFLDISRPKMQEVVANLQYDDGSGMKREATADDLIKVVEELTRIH

The IC50 is the midpoint of a concentration-inhibition curve. In general, DC50 refers to the concentration at which degradation of the target reaches its halfway point. Usually Dmax stands for the greatest extent of degradation seen. In the assay on Phospho-Rb (Ser807/811) (concentration giving 50% response), `COc1c(COC(=O)Nc2ccc(Oc3ccc(F)c(F)c3)cc2)ccc2c1C(=O)N([C@H]1CCC(=O)NC1=O)C2` (single isomer, unassigned) [Example 35, {2-[(3 S)-2,6-dioxopiperidin-3-yl]-4-methoxy-3-oxo-2,3-dihydro-1H-isoindol-5-yl}methyl N-[4-(3,4-difluorophenoxy)phenyl]carbamate] gave an IC50 of 85 nM. Also, the Emax in the assay with Phospho-Rb (Ser807/811) (maximum response, reference compound at 10 μM = 100%, read-out: pRB Ymax) came to 114%. Moreover, on Cyclin E1 (Cyclin E1 cellular degradation), the DC50 was 159 nM. Further, the Dmax on Cyclin E1 (Cyclin E1 cellular degradation, maximum degradation) amounted to 107%. The “Ratio of GSPT1 DC50/Cyclin E1 DC50” value on Cyclin E1 (selectivity for degradation of Cyclin E1 over GSPT1) is recorded as more than 88.
